Our source for the IC50 values is ChEMBL document CHEMBL1148159, “An analysis of phakellin and oroidin structures stimulated by further study of an Agelas sponge” (J Nat Prod, 2004).

As a reminder, the IC50 is the concentration at which inhibition is half-maximal.

Molecules are shown by their SMILES.

The target in the assay is T1, Polyunsaturated fatty acid lipoxygenase ALOX12 (Homo sapiens, UniProt P18054).
T1 sequence (P18054 whole entry): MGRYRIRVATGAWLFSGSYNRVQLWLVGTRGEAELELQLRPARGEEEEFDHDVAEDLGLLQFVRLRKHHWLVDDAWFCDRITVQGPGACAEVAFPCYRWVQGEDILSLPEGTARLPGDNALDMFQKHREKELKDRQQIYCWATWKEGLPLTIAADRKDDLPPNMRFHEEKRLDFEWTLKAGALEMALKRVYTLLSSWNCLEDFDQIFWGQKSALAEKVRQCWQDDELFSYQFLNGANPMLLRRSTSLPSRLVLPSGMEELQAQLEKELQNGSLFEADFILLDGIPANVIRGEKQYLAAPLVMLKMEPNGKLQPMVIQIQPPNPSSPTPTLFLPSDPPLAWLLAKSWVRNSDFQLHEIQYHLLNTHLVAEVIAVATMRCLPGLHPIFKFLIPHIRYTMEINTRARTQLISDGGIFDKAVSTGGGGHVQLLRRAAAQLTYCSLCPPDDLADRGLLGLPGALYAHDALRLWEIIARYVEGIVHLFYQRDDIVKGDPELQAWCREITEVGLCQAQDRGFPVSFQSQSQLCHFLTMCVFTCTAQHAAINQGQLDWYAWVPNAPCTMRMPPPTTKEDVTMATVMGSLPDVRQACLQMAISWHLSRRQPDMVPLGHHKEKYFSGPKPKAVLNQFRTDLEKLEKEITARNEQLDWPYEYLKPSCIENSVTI
As to the kind of experiment: Inhibition of human 12-lipoxygenase.

On to `CN1C(N)=N[C@]23CCCN2C(=O)c2cc(Br)c(Br)n2[C@H]13`, for which the IC50 stood at 10.7 µM.
